Read-outs that look alike come from different tables or passages of the source.
How the values were obtained:
[1] = tested on: T1, MDH (malate dehydrogenase, major isozyme, DEAE peak II) of P. verweyi from WLT; test: NADH oxidation, absorbance at […] nm; format: biochemical, Platygyra verweyi; conditions: 100 mM phosphate pH 7.0, about 27 °C, read-out: apparent Km
T1 construct: gene MDH1; native, purified from host tissue extract of symbiotic coral; about 38 kDa by SDS-PAGE, native about 64 kDa, dimer

[2] = tested on: T2, MDH (malate dehydrogenase, major isozyme, DEAE peak II) of P. verweyi from NPP-OL; test: NADH oxidation, absorbance at […] nm; format: biochemical, Platygyra verweyi; conditions: 100 mM phosphate pH 7.0, about 27 °C, read-out: apparent Km
T2 construct: gene MDH1; native, purified from host tissue extract of symbiotic coral; about 39 kDa by SDS-PAGE, native about 67 kDa, dimer

[3] = OAA varied 14-29 µM, NADH fixed (3 mM as printed)
[4] = NADH varied 38-95 µM, OAA fixed (1 mM [sic])

Row | Km [1, 3] | Km [2, 3] | Km [1, 4] | Km [2, 4] | Compound
1 | 5.7 µM | 9.4 µM |  |  | O=C(O)CC(=O)C(=O)O [oxaloacetate]
2 |  |  | 12.7 µM | 7.5 µM | NC(=O)C1=CN([C@@H]2O[C@H](COP(=O)(O)OP(=O)(O)OC[C@H]3O[C@@H](n4cnc5c(N)ncnc54)[C@H](O)[C@@H]3O)[C@@H](O)[C@H]2O)C=CC1 [NADH]

From article PMC6748984, “The coral Platygyra verweyi exhibits local adaptation to long-term thermal stress through host-specific physiological and enzymatic response” (Scientific Reports, 2019)
